Data from US20160129005A1, “ADENINE DERIVATIVES HAVING IMMUNOMODULATING ANTI-INFLAMMATORY AND ANALGESIC ACTIVITY” (MEDESTEA RESEARCH & PRODUCTION S.p.A., priority 2011, published 2016).

Legend:
[1] = tested on: C57BL/6 mice transplanted with BALB/c hearts; experiment: Murine heterotopic heart transplant model; type: in vivo, mouse; conditions: Rapamycin alone 0.1 mg/kg day 0 to day 10; n=5; Ctrl MST=7
Procedure: The immunosuppressive potential of […] was tested on a heterotopic heart transplant model; hearts of BALB/c mice were transplanted into the abdominal cavity of C57BL/6 mice.
The beats of the heart were measured, twice weekly, by palpation; stopping of beating was regarded as a sign of transplant rejection.
Three different protocols were used for prolonging transplant survival times: the “short-term” protocol ([…] 9 mg/kg daily for 14 days), the “long-term” protocol ([…] 9 mg/kg every day until rejection), and the “Combo” protocol ([…] on alternate days: day 0, 2, 4, 6, 8, 10, 12, 14+Rapamycin 0.1 mg/kg from day 0 to day 10).
In the acute heart transplant models, the hearts of BALB/c were transplanted into the peritoneal cavity of C57BL/6 mice. The control mice invariably reject the transplant in 10 days (Ctrl: MST=7 days, n=12), (FIG. 26). The “short-term” protocol permitted indefinite survival (100 days) in 10 mice out of 12 (n=12; p=0.0001 vs. Ctrl), (FIG. 26). Similarly, the “long-term” protocol permitted indefinite survival in 8 mice out of 10 (n=10; p=0.002 vs Ctrl), and prolonged survival in the remaining 2 (16 days and 25 days; p=0.002 vs. Ctrl), (FIG. 26).
The histological sections of the hearts on day 7 of BALB/c mice, transplanted into a C57BL/6 host, and treated with the “short-term” protocol, were also analysed.

[2] = tested on: Swiss CD1 mice; experiment: CFA thermal hyperalgesia, synergy with opioids
Procedure: We compared the activity of […] with that of the opioids to study its analgesic effect.
Mice of the Swiss CD1 type were given a single intraplantar injection of 30 microlitres of complete Freund adjuvant (CFA) in the right plantar pad. Intraperitoneal injection of […] and/or of morphine (morphine chlorhydrate, Molteni) was administered 24 hours after injection of CFA according to the following scheme:
1. […] 7.5 mg/kg; 2. […] 10 mg/kg; 3. […] 200 mg/kg; 4. […] 50 mg/kg; 5. Morphine 0.4 mg/kg; 6. Morphine 2.5 mg/kg; 7. Morphine 1 mg/kg; 8. Morphine 0.4 mg/kg; 9. Morphine 1 mg/kg+[…] 10 mg/kg; 10. Morphine 0.4 mg/kg+[…] 10 mg/kg; 11. Morphine 1 mg/kg+[…] 10 mg/kg; 12. Morphine 0.4 mg/kg+[…] 10 mg/kg; 13. Morphine 4 mg/kg.
Groups 9-11 and 10-12 have the same doses respectively; they were repeated to confirm the results.
Thermal hyperalgesia was assessed using the Ugo Basile apparatus (Comerio, Italy).
The test was carried out before (baseline values) injection of CFA, after injection of CFA and 0.5, 1, 2, 3, 6 and 12 hours after injecting the drug in the inflamed pad.

Structure (SMILES) | MST (mean survival time) [1] | obsessive-compulsive disorders (behaviour) ([2]; morphine 2.5 mg/kg or higher doses) | activity on nociception ([2]; morphine alone i.p. at the highest dose)
CO[C@H]1C[C@@H]2CC[C@@H](C)[C@@](O)(O2)C(=O)C(=O)N2CCCC[C@H]2C(=O)O[C@H]([C@H](C)C[C@@H]2CC[C@@H](O)[C@H](OC)C2)CC(=O)[C@H](C)/C=C(\C)[C@@H](O)[C@@H](OC)C(=O)[C@H](C)C[C@H](C)/C=C/C=C/C=C/1C [Rapamycin, reference compound] | 25 days | – | –
CN1CC[C@]23c4c5ccc(O)c4O[C@H]2[C@@H](O)C=C[C@H]3[C@H]1C5 [morphine, morphine chlorhydrate, reference compound] | – | displayed obsessive-compulsive disorders | anaesthetic-like
